ChEMBL document CHEMBL5653631, “A Potent and Selective ULK1 Inhibitor Suppresses Autophagy and Sensitizes Cancer Cells to Nutrient Stress” (iScience, 2018)
Calls of active or inactive are those of the source. No cut-off for these calls is given here.

Columns and labels:
[1] = target: Protein kinase C iota type (Homo sapiens) (UniProt P41743); test: Inhibition of human recombinant PKCi at 40 nM in presence of ATP by radiometric assay relative to control
[2] = target: T1, Receptor-interacting serine/threonine-protein kinase 1 (Homo sapiens) (UniProt Q13546); test: Inhibition of human recombinant RIPK1 at 40 nM related to control ULK1
T1 sequence (whole entry): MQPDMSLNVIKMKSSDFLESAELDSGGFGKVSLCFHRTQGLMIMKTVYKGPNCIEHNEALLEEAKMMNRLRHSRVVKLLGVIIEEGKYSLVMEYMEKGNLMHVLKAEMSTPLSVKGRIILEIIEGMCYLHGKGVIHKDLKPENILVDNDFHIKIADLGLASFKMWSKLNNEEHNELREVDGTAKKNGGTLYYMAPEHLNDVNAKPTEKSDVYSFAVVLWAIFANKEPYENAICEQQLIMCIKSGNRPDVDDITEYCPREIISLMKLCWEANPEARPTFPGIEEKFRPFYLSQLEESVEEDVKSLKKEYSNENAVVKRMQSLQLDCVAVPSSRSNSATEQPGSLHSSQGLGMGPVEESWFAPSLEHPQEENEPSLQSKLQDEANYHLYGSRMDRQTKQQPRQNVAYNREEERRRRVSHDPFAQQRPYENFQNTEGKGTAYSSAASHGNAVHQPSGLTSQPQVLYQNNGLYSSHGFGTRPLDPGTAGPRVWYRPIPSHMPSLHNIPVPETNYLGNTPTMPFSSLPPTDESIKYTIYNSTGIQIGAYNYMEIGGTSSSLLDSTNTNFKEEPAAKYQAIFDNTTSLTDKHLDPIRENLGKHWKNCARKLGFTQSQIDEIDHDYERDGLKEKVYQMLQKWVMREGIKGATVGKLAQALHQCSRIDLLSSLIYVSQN

[3] = tested on: U2OS; test: Inhibition of autophagy in human U2OS cells assessed as BafA1-induced LC3B-II accumulation upto 5 uM preincubated with compound for 3 hrs followed by BafA1 induction and measured after 1 hr by immunoblotting analysis; format: functional, cell-based; settings: time 4.0 hrs
[4] = target: Serine/threonine-protein kinase/endoribonuclease IRE1 (Homo sapiens) (UniProt O75460); test: Inhibition of human recombinant IRE1 at 15 nM in presence of ATP by radiometric assay relative to control
[5] = target: Homeodomain-interacting protein kinase 3 (Homo sapiens) (UniProt Q9H422); test: Inhibition of human recombinant HIPK3 at 15 nM in presence of ATP by radiometric assay relative to control
[6] = target: Calcium/calmodulin-dependent protein kinase type II subunit gamma (Homo sapiens) (UniProt Q13555); test: Inhibition of human recombinant CaMK2g at 500 nM related to control ULK1
[7] = target: T2, Mitogen-activated protein kinase 13 (Homo sapiens) (UniProt O15264); test: Inhibition of human recombinant p38delta at 500 nM in presence of ATP by radiometric assay relative to control
T2 sequence (whole entry): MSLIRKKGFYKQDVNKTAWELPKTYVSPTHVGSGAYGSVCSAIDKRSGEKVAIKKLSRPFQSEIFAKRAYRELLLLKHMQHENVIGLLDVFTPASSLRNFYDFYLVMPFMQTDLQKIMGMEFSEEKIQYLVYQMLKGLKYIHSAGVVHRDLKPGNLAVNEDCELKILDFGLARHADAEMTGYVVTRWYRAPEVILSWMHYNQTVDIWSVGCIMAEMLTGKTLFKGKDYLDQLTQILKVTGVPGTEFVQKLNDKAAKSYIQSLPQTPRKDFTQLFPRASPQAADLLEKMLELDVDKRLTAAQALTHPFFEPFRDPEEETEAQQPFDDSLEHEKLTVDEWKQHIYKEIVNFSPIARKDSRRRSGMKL

[8] = target: Wee1-like protein kinase (Homo sapiens) (UniProt P30291); test: Inhibition of human recombinant Wee1 at 500 nM related to control ULK1
[9] = target: T3, Eukaryotic translation initiation factor 2-alpha kinase 3 (Homo sapiens) (UniProt Q9NZJ5); test: Inhibition of human recombinant PEK at 500 nM related to control ULK1
T3 sequence (whole entry): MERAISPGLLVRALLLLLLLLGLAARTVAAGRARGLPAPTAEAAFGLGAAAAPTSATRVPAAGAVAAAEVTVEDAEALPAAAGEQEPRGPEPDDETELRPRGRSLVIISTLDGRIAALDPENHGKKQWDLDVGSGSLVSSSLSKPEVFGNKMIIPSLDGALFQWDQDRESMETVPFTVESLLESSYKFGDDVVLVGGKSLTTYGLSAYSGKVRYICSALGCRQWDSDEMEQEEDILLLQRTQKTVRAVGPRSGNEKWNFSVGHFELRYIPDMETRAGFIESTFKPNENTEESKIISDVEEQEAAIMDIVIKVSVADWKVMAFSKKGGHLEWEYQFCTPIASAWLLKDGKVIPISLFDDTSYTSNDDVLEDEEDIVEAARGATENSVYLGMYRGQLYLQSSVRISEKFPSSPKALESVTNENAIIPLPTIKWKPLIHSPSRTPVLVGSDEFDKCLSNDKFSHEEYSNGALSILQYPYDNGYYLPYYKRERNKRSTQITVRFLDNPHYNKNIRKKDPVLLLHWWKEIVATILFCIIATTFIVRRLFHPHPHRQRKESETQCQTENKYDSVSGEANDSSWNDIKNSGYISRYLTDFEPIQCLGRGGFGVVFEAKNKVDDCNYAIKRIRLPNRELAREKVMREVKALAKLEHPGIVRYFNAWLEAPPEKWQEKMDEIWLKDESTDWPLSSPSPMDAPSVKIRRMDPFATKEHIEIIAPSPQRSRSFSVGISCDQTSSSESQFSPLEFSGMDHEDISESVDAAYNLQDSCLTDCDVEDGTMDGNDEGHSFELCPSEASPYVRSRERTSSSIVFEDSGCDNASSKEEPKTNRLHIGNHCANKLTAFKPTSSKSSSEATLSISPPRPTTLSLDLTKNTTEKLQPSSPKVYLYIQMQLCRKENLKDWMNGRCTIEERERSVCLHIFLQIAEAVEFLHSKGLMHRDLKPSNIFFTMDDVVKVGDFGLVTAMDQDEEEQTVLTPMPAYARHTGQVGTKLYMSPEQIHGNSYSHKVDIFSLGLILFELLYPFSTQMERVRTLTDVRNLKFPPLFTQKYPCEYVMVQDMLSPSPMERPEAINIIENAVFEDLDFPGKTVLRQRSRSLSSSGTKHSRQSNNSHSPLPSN

Chain of Wee1-like protein kinase (Homo sapiens) (P30291 whole entry, looked up): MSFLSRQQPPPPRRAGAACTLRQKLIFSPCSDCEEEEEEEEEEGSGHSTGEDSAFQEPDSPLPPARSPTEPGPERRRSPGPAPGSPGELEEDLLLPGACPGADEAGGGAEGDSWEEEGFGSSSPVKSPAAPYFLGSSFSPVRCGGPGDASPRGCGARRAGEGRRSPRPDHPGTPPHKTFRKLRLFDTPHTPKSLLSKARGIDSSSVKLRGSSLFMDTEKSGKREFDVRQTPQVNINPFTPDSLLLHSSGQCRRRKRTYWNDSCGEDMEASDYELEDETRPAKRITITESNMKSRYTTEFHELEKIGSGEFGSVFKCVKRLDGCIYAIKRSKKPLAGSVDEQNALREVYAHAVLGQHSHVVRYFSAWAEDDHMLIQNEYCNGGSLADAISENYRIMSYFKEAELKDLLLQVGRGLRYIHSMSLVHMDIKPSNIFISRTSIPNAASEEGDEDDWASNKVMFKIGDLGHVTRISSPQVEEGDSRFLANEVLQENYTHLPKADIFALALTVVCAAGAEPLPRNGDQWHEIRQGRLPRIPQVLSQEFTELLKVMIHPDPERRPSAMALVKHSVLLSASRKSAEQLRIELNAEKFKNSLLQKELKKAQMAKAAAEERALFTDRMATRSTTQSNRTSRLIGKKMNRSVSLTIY
Chain of Serine/threonine-protein kinase/endoribonuclease IRE1 (Homo sapiens) (O75460 19-977 limits assumed): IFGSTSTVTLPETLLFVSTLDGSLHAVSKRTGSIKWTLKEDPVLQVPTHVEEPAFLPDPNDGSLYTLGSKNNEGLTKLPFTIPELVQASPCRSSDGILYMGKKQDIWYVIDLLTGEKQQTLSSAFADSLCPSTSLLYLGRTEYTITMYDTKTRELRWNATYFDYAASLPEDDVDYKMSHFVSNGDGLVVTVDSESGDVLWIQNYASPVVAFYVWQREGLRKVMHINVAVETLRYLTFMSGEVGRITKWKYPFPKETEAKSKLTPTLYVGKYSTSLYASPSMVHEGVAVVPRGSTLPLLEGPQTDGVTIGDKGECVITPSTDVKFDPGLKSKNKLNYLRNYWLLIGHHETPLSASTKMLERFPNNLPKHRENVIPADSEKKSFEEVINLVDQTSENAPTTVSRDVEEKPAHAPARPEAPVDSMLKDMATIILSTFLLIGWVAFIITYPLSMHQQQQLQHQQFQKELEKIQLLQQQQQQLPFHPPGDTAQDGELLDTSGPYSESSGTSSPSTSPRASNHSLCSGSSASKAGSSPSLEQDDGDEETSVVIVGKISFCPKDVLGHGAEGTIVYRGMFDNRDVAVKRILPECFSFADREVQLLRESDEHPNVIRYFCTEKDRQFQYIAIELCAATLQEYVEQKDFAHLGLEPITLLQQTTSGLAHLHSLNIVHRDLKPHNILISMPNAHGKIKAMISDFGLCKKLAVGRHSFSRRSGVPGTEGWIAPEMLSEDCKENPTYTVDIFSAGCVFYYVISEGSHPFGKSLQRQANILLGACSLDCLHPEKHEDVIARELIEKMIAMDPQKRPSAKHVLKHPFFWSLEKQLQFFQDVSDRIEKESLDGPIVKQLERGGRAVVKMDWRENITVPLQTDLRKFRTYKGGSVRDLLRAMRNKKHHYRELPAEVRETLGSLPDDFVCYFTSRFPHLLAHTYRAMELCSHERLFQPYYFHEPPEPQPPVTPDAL
Chain of Homeodomain-interacting protein kinase 3 (Homo sapiens) (Q9H422 whole entry, looked up): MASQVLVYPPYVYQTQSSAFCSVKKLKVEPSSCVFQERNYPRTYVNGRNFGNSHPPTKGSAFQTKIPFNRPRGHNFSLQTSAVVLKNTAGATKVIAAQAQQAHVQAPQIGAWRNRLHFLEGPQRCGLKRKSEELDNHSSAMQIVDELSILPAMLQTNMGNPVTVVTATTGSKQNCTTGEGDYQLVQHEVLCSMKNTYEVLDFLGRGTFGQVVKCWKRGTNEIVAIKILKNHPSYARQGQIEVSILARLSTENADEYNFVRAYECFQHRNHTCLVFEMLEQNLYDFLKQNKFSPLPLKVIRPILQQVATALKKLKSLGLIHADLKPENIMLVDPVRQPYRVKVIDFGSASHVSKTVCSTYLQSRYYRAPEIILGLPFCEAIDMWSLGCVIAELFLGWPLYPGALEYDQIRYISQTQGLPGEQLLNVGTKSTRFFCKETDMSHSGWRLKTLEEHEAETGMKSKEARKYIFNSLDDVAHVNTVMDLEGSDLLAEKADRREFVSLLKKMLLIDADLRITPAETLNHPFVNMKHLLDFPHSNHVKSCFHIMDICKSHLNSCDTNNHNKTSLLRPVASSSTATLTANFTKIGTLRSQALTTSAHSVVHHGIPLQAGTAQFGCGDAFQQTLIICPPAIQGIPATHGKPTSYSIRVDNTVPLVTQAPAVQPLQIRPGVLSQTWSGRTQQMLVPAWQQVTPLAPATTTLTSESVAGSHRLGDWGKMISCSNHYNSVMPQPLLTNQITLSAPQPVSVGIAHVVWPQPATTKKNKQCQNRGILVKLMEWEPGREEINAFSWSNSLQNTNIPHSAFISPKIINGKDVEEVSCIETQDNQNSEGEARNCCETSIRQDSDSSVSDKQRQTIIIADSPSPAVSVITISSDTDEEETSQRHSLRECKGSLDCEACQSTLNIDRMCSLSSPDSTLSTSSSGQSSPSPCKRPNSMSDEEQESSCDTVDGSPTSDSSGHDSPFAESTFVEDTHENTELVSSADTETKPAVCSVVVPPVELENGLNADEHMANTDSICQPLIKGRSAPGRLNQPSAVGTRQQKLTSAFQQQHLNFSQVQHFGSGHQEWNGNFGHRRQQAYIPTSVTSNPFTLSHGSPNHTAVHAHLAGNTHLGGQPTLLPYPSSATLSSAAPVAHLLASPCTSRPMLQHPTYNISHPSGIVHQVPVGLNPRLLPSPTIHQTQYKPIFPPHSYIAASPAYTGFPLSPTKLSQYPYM
Chain of Protein kinase C iota type (Homo sapiens) (P41743 whole entry, looked up): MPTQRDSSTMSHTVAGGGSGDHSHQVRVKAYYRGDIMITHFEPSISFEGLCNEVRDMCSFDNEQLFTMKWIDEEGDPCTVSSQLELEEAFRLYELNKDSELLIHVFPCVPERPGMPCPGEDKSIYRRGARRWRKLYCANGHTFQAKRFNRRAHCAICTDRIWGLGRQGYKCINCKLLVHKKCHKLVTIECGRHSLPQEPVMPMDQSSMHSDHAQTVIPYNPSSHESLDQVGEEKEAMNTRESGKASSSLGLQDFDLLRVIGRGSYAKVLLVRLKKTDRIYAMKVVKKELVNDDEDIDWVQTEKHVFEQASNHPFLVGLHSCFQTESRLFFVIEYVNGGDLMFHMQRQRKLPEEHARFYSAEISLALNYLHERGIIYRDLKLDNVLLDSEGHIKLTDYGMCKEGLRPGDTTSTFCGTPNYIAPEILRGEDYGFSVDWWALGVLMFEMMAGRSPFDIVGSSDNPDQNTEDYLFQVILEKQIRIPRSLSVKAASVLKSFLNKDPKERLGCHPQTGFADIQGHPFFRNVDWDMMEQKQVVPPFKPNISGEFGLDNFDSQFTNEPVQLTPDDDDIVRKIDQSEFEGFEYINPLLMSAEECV
Chain of Calcium/calmodulin-dependent protein kinase type II subunit gamma (Homo sapiens) (Q13555 whole entry): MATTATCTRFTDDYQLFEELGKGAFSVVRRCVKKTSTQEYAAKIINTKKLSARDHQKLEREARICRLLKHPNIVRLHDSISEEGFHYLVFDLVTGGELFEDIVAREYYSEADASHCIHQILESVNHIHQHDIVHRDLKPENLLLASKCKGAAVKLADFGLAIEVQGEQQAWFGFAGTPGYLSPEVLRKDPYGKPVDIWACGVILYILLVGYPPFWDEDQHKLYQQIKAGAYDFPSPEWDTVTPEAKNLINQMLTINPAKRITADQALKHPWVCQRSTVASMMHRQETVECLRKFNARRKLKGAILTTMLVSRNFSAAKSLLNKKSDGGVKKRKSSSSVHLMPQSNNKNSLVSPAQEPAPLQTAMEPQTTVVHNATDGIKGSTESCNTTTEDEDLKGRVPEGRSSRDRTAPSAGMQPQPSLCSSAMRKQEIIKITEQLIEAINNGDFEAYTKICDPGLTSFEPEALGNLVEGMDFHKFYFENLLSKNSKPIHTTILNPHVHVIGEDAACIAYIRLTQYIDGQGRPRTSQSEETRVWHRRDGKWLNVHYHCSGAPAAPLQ

SMILES: O=C(N[C@@H](C1CC1)C(F)(F)F)c1cc(-c2cnn3cc(-c4ccc(F)cc4)cnc23)cs1
- inhibition [1]: 0%
- fold change (FC) [2]: 0.03
- inhibition [3]: Active

SMILES: CC(C)[C@H](NC(=O)c1cc(-c2cnn3cc(-c4ccc(OCCN5CCCCC5)cc4)cnc23)cs1)C(F)(F)F
- inhibition [4]: 0%
- inhibition [5]: 0%

SMILES: CNC(=O)c1ccccc1Oc1nc(Nc2cc(OC)c(OC)c(OC)c2)ncc1Br
- fold change (FC) [6]: 0.03
- inhibition [7]: 19%
- fold change (FC) [8]: 0.22
- fold change (FC) [9]: 0
